Laboratory results published in patent US4175081A, “5-Substituted thiadiazole ureas” (priority 1977, dated 1979).

What was measured:
Turnip (TP) [1] = assay: Pre-emergence herbicide test; format: in vivo, Brassica sp.; details: Brassica rapa, pre-emergence, 336 h, two weeks after treatment
In short: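 Turnip (Brassica sp.) seeds were surface sown in 3' plastic pots of potting soil, covered with a thin layer of screened soil, and sub-irrigated in greenhouse trays. Pots were seeded one day ahead of treatment, sprayed pre-emergence under a hood with a fixed nozzle and moving belt, then kept in the greenhouse.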

Bean (BN) [2] = assay: Pre-emergence herbicide test; format: in vivo, Phaseolus vulgaris var. Black Valentine; details: Phaseolus vulgaris, 336 h, two weeks after treatment
In short: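 Black Valentine bean was seeded in potting soil one day before spraying. Compound was applied pre-emergence at 8 lbs/acre (also 4 lbs/acre) in 38 gallons per acre. Plants were sub-irrigated and injury or control was rated visually after two weeks.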

Crabgrass (CG) [3] = assay: Pre-emergence herbicide test; format: in vivo, Digitaria sanquinalis; details: Digitaria sanguinalis, pre-emergence, 336 h, two weeks after treatment
In short: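 Crabgrass (Digitaria sanquinalis) was surface seeded in 3' plastic pots of potting soil, covered with screened soil, and watered by sub-irrigation in greenhouse trays. Pots were seeded one day before spraying in a hood with a moving belt and fixed nozzle. Plants stayed in the greenhouse on sub-irrigation, and pre-emergence control was rated visually two weeks after treatment.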

Crabgrass (CG) [4] = assay: Post-emergence herbicide test; format: in vivo, Digitaria sanquinalis; details: Digitaria sanguinalis, post-emergence, 336 h, two weeks after treatment
In short: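 Crabgrass (Digitaria sanquinalis) was surface seeded individually in 3' plastic pots of potting soil, covered with screened soil, and watered by sub-irrigation in greenhouse trays. Planting was staggered so seedlings reached the target stage together. Post-emergence sprays were applied in a hood with a removable belt and fixed nozzle, and control was visually rated two weeks after treatment.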

Cotton (CT) [5] = assay: Pre-emergence herbicide test; format: in vivo, Gossypium hirsutum var. DPL smooth leaf; details: Gossypium hirsutum, 336 h, two weeks after treatment
In short: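 Crop and weed species seeded one day before treatment, then sprayed pre-emergence at 8 lbs actual compound per acre (also 4 lbs/acre formulations) in 38 gallons per acre. Pots kept in greenhouse with sub-irrigation only; injury or control visually rated two weeks after treatment.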

Turnip (TP) [6] = assay: Post-emergence herbicide test; format: in vivo, Brassica sp.; details: Brassica rapa, post-emergence, 336 h, two weeks after treatment
In short: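 A greenhouse post-emergence herbicide test on turnip. Seeds were sown on the surface of potting soil in 3' plastic pots, lightly covered with screened soil and watered from below. Planting was timed so seedlings had 1 or 2 true leaves above the cotyledons at spraying, done in a hood with a fixed nozzle. Control or injury was scored by eye after two weeks.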

Johnson grass (JG) = assay: Pre-emergence herbicide test; format: in vivo, Sorgum helepense; details: Sorghum halepense, 336 h, two weeks after treatment
In short: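 Pots seeded one day before spraying; compound applied pre-emergence at 8 lbs/acre (or 4 lbs/acre) in 38 gallons/acre spray volume. Sub-irrigated in greenhouse; injury/control rated visually two weeks after treatment.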

Bean (BN) [7] = assay: Post-emergence herbicide test; format: in vivo, Phaseolus vulgaris var. Black Valentine; details: Phaseolus vulgaris, post-emergence, 336 h, two weeks after treatment
In short: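 Snapbean (Phaseolus vulgaris var. Black Valentine) was tested post-emergence. Four seeds were sown in 3' plastic pots of potting soil at a depth equal to the seed diameter, then sub-irrigated in greenhouse trays. Planting dates were staggered so plants were sprayed once primary leaves had expanded, with the growing point at the primary leaf nodes.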

Amaranth pigweed (PW) = assay: Pre-emergence herbicide test; format: in vivo, Amaranthus retroflexus; details: 336 h, two weeks after treatment
Protocol: All crop and weed species were planted individually in 3' plastic pots containing potting soil. Four seeds each of corn, cotton, and snapbeans were seeded to a depth equal to the diameter of the seed. All other species were surface seeded and sprinkled with screened soil in an amount sufficient to cover the seed. Immediately after planting, all pots were watered by sub-irrigation in greenhouse trays. Pots for the pre-emergence phase were seeded one day before treatment.
Compounds were tested at rates of application equivalent to 8 lbs. of actual compound per acre in a spray volume of 38 gallons per acre. Spray hood constants required to deliver the above volume are as follows:
Formulations for spray applications were prepared in 50 ml volumes with the following three components:
Formulations for the 4 lbs/acre rate were prepared by adjusting the amount of active ingredient accordingly.
Spray applications were made in a hood containing a removable belt and fixed spray nozzle. For passage through the spray hood, one pot of each specie (pre-emergence phase) was placed on the rear half of the flat. Treatments were removed to the greenhouse after spraying. Watering during the observation period was done only by sub-irrigation.
Two weeks after treatment, pre- and post-emergence injury or control was visually rated, and the results were as shown in the following tables. Pre-emergence data are provided in TABLE III and post-emergence data are provided in TABLE IV, for compounds having the formula illustrated in TABLE I. Correspondingly, pre-emergence and post-emergence data, respectively, are set forth in TABLES V AND VI, for compounds having the formula illustrated in TABLE II.

Corn (CN) = assay: Pre-emergence herbicide test; format: in vivo; details: Zea mays, 336 h, two weeks after treatment
In short: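 Four corn seeds per pot, sown at seed-diameter depth one day before spraying, got soil surface treatment at 8 lbs/acre (4 lbs/acre formulations also prepared) in 38 gallons/acre. Pots were greenhouse-held with sub-irrigation only. Injury or control was scored visually two weeks after treatment.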

Barnyard grass (BG) = assay: Pre-emergence herbicide test; format: in vivo; details: Echinochloa crus-galli, 336 h, two weeks after treatment
In short: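 Barnyard grass surface-seeded in potting soil and sprayed pre-emergence one day after seeding, at 8 or 4 lb compound/acre in 38 gal/acre spray volume. Pots kept in greenhouse with sub-irrigation only; injury or control rated visually two weeks after treatment.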

Cotton (CT) [8] = assay: Post-emergence herbicide test; format: in vivo, Gossypium hirsutum var. DPL smooth leaf; details: Gossypium hirsutum, post-emergence, 336 h, two weeks after treatment
In short: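 Cotton (Gossypium hirsutum var. DPL smooth leaf) was grown in 3' plastic pots of potting soil, four seeds per pot, planted at a depth equal to the seed diameter and watered by sub-irrigation. At the stage of expanded cotyledons with the first true leaf 1' long, plants were sprayed post-emergence in a hood with a fixed nozzle over a moving belt. Percent control was rated visually two weeks later.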

Work on `CCS(=O)(=O)c1nnc(N(C)C(=O)NC)s1` [Example 91] yielded a pest or weed control at 560.425 g/ha (Turnip (TP) [1]; 0.5 lb/acre) of 60%, a pest or weed control at 1120.85 g/ha (Turnip (TP) [1]; 1 lb/acre) of 60% and a pest or weed control at 2241.7 g/ha (Turnip (TP) [1]; 2 lb/acre) of 90%. For the same compound, the pest or weed control at 4483.4 g/ha (Turnip (TP) [1]; 4 lb/acre) was 100%, the pest or weed control at 560.425 g/ha (Bean (BN) [2]; 0.5 lb/acre) was 10% and the pest or weed control at 1120.85 g/ha (Bean (BN) [2]; 1 lb/acre) was 70%. It also gave a pest or weed control at 2241.7 g/ha (Bean (BN) [2]; 2 lb/acre) of 70%, a pest or weed control at 4483.4 g/ha (Bean (BN) [2]; 4 lb/acre) of 100% and a pest or weed control at 560.425 g/ha (Crabgrass (CG) [3]; 0.5 lb/acre) of 80%. The pest or weed control at 1120.85 g/ha (Crabgrass (CG) [3]; 1 lb/acre) was 90%, the pest or weed control at 2241.7 g/ha (Crabgrass (CG) [3]; 2 lb/acre) was 90% and the pest or weed control at 4483.4 g/ha (Crabgrass (CG) [3]; 4 lb/acre) was 100%. It also gave a pest or weed control at 560.425 g/ha (Crabgrass (CG) [4]; 0.5 lb/acre) of 40%, a pest or weed control at 1120.85 g/ha (Crabgrass (CG) [4]; 1 lb/acre) of 60% and a pest or weed control (Crabgrass (CG) [4]; 2 lb/acre) of 70%. For the same compound, the pest or weed control at 4483.4 g/ha (Crabgrass (CG) [4]; 4 lb/acre) was 100%, the pest or weed control at 560.425 g/ha (Cotton (CT) [5]; 0.5 lb/acre) was 30% and the pest or weed control at 1120.85 g/ha (Cotton (CT) [5]; 1 lb/acre) was 50%. It also gave a pest or weed control at 2241.7 g/ha (Cotton (CT) [5]; 2 lb/acre) of 50%, a pest or weed control at 4483.4 g/ha (Cotton (CT) [5]; 4 lb/acre) of 90% and a pest or weed control at 560.425 g/ha (Turnip (TP) [6]; 0.5 lb/acre) of 100%. For the same compound, the pest or weed control at 1120.85 g/ha (Turnip (TP) [6]; 1 lb/acre) was 100%, the pest or weed control at 2241.7 g/ha (Turnip (TP) [6]; 2 lb/acre) was 100% and the pest or weed control at 4483.4 g/ha (Turnip (TP) [6]; 4 lb/acre) was 100%. It also gave a pest or weed control at 560.425 g/ha (Johnson grass (JG); 0.5 lb/acre) of 50%, a pest or weed control at 1120.85 g/ha (Johnson grass (JG); 1 lb/acre) of 50% and a pest or weed control at 2241.7 g/ha (Johnson grass (JG); 2 lb/acre) of 60%. It also gave a pest or weed control at 4483.4 g/ha (Johnson grass (JG); 4 lb/acre) of 100%, a pest or weed control at 560.425 g/ha (Bean (BN) [7]; 0.5 lb/acre) of 100% and a pest or weed control at 1120.85 g/ha (Bean (BN) [7]; 1 lb/acre) of 100%. For the same compound, the pest or weed control at 2241.7 g/ha (Bean (BN) [7]; 2 lb/acre) was 100%, the pest or weed control at 4483.4 g/ha (Bean (BN) [7]; 4 lb/acre) was 100% and the pest or weed control at 560.425 g/ha (Amaranth pigweed (PW); 0.5 lb/acre) was 40%. For the same compound, the pest or weed control at 1120.85 g/ha (Amaranth pigweed (PW); 1 lb/acre) was 90%, the pest or weed control at 2241.7 g/ha (Amaranth pigweed (PW); 2 lb/acre) was 100% and the pest or weed control at 4483.4 g/ha (Amaranth pigweed (PW); 4 lb/acre) was 100%. For the same compound, the pest or weed control at 560.425 g/ha (Corn (CN); 0.5 lb/acre) was 10%, the pest or weed control at 1120.85 g/ha (Corn (CN); 1 lb/acre) was 50% and the pest or weed control at 2241.7 g/ha (Corn (CN); 2 lb/acre) was 50%. It also gave a pest or weed control at 4483.4 g/ha (Corn (CN); 4 lb/acre) of 60%, a pest or weed control at 560.425 g/ha (Barnyard grass (BG); 0.5 lb/acre) of 30% and a pest or weed control at 1120.85 g/ha (Barnyard grass (BG); 1 lb/acre) of 60%. For the same compound, the pest or weed control at 2241.7 g/ha (Barnyard grass (BG); 2 lb/acre) was 90%, the pest or weed control at 4483.4 g/ha (Barnyard grass (BG); 4 lb/acre) was 100% and the pest or weed control at 560.425 g/ha (Cotton (CT) [8]; 0.5 lb/acre) was 100%. It also gave a pest or weed control at 1120.85 g/ha (Cotton (CT) [8]; 1 lb/acre) of 100%, a pest or weed control at 2241.7 g/ha (Cotton (CT) [8]; 2 lb/acre) of 100% and a pest or weed control at 4483.4 g/ha (Cotton (CT) [8]; 4 lb/acre) of 100%.
